# Values quoted from earlier work in patent US20230089681A1, “USE OF A COMBINATION OF SULFICANT COMPOUNDS WITH A LIQUID CARRIER AS A SELF EMULSIFYING DRUG DELIVERY SYSTEM” (priority 2021, published 2023).
# Like-named read-outs stand apart in the source and are kept apart here.
compound,measurement,setting,value
COc1ccc2cc3[n+](cc2c1OC)CCc1cc2c(cc1-3)OCO2 [Berberine],absorption,"oral, in capsule form taken with water",0.306%
same,absorption,traditional oral administration,0.36%
